From patent US10800778B2 (Entasis Therapeutics Limited, priority 2016, dated 2020)
Structures can show the parent of a compound that is named as a salt.

Key:
[1] = molecular target: TEM-1 (Class A beta-lactamase) (Escherichia coli, UniProt P62593); test: Inhibition of beta-lactamase enzymes (nitrocefin hydrolysis), TEM-1; type: biochemical; conditions: read-out: Class A TEM-1 60 min IC50, nitrocefin 100 μM
Description: (§1) A buffer consisting of 0.1 M sodium phosphate (pH 7.0), 10 mM NaHCO3, and 0.005% Triton X-100 was used for all enzymes. The chromogenic substrate nitrocefin (SynGene, Bangalore, India) was used at 100 μM. Enzyme activity was monitored by the 490 nm absorbance increase upon nitrocefin hydrolysis. Assays were performed in clear polystyrene 384-well plates (Greiner Bio-One, Monroe, N.C.). Absorbance was measured for 1 hour at 30-s intervals using a Spectramax absorbance plate reader (Molecular Devices, Sunnyvale, Calif.). Measurement of beta-lactamase inhibition by INHIBITOR employed serial 3-fold dilutions of the inhibitor in assay buffer, ranging from 100 μM to 62.7 pM. A background absorbance progress curve for a control lacking enzyme and inhibitor was subtracted from each progress curve.
(§2) The complete set of progress curves for one enzyme with all inhibitor concentrations was subjected to numerical integration with the program Kintek Global Kinetic Explorer (Kintek Corp, Snowshoe Pa.) to obtain a best-fit to the mechanism shown in Scheme 10.
(§3) where E, S, ES, P, I, and EI are the concentrations of the enzyme, nitrocefin, the enzyme-nitrocefin complex, the nitrocefin hydrolysis product, INHIBITOR, and the enzyme-INHIBITOR complex respectively. […] The values of k+2, k+3, and k−3 were fit. Concentration series offsets of the absorbance measurements were used to correct for slight absorbance baseline differences between wells. The parameter k+3 is equivalent to the second order rate constant kinact/Ki. In some cases, the inhibition was in rapid equilibrium on the experimental time scale, so that only the ratio k−3/k+3=Ki could be determined. Although k−3 represents reversal of inhibitor binding in Scheme 10, hydrolysis of the enzyme-inhibitor complex could not be excluded based on kinetic measurements.
(§4) Best-fit absorbance values from the above procedure at each time point for each compound concentration were exported to Excel.
(§5) where A is the best-fit absorbance without inhibitor and Ainhib is the best-fit absorbance in the presence of the inhibitor.
(§6) where [I] is the inhibitor concentration and n is the Hill coefficient. The Excel add-in XLfit (ID Business Solutions) was used for nonlinear regression.

[2] = molecular target: OXA-48 (Class D beta-lactamase) (Klebsiella pneumoniae, UniProt Q6XEC0); test: Inhibition of beta-lactamase enzymes (nitrocefin hydrolysis), OXA-48; type: biochemical; conditions: read-out: Class D OXA-48 60 min IC50, nitrocefin 100 μM
Sequence of OXA-48 (Class D beta-lactamase) (Q6XEC0 whole entry, looked up, species assumed): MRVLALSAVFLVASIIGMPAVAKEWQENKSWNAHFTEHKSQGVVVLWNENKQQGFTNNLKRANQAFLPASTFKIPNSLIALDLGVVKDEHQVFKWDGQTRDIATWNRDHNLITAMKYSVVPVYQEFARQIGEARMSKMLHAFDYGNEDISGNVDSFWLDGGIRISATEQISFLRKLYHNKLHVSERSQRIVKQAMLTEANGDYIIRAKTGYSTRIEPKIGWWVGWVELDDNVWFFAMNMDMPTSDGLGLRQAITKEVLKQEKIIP
Description: as §1, §2, §3, §4, §5, §6

Sequence of TEM-1 (Class A beta-lactamase) (P62593 whole entry, looked up, species assumed): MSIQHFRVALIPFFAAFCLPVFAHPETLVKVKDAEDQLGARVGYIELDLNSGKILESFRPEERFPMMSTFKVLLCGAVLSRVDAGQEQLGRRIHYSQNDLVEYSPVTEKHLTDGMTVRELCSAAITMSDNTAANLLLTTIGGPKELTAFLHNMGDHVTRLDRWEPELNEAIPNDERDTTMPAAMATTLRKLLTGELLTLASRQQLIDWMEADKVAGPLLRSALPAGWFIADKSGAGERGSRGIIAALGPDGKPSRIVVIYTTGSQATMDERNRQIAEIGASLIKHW

| Structure (SMILES) | IC50 [1] | IC50 [2] |
| --- | --- | --- |
| CC1=C[C@@H]2CN(C(=O)N2O[C@@H](F)C(=O)O)[C@@H]1C(=O)NCNS(N)(=O)=O [Example 89, lithium salt] | 33 nM | 150 nM |
| CC1=C[C@@H]2CN(C(=O)N2O[C@@H](F)C(=O)O)[C@@H]1C(=O)NCC#N [Example 82, (2S)-2-fluoro-2-[[(2S,5R)-2-(cyanomethylcarbamoyl)-3-methyl-7-oxo-1,6-diazabicyclo[3.2.1]oct-3-en-6-yl]oxy]acetic acid lithium salt] | 85 nM | 28 nM |
| CC1=C[C@@H]2CN(C(=O)N2OC(C)(F)C(=O)O)[C@@H]1C(N)=O (mixture of isomers) [Example 11, 2-{[(2S,5R)-2-carbamoyl-3-methyl-7-oxo-1,6-diazabicyclo[3.2.1]oct-3-en-6-yl]oxy}-2-fluoropropanoic acid lithium salt (mixture of diastereomers)] | 230 nM | 22000 nM |
| CC1=C[C@@H]2CN(C(=O)N2O[C@@H](F)C(=O)O)[C@@H]1C(=O)NC1COC1 [Example 66, (2S)-2-fluoro-2-[[(2S,5R)-3-methyl-2-(oxetan-3-ylcarbamoyl)-7-oxo-1,6-diazabicyclo[3.2.1]oct-3-en-6-yl]oxy]acetic acid lithium salt] | 660 nM | 12 nM |
| CC1=C[C@@H]2CN(C(=O)N2O[C@@H](F)C(=O)O)[C@@H]1C(=O)NCc1ncco1 [Example 68, (2S)-2-fluoro-2-[[(2S,5R)-3-methyl-2-(oxazol-2-ylmethylcarbamoyl)-7-oxo-1,6-diazabicyclo[3.2.1]oct-3-en-6-yl]oxy]lacetic acid lithium salt] | 310 nM | 78 nM |
| CC1=C[C@@H]2CN(C(=O)N2OC(F)C(=O)O)[C@@H]1C(N)=O (mixture of isomers) [Example 5, {[(2S,5R)-2-carbamoyl-3-methyl-7-oxo-1,6-diazabicyclo[3.2.1]oct-3-en-6-yl]oxy}(fluoro)acetic acid lithium salt (mixture of diastereomers)] | 4.4 nM | 17 nM |
| CC1=C[C@@H]2CN(C(=O)N2O[C@@H](F)C(=O)O)[C@@H]1CN [Example 77, (2S)-2-[[(2S,5R)-2-(aminomethyl)-3-methyl-7-oxo-1,6-diazabicyclo[3.2.1]oct-3-en-6-yl]oxy]-2-fluoro-acetic acid] | > 100000 nM | > 100000 nM |
| CC1=C[C@@H]2CN(C(=O)N2OC(F)(F)C(=O)O)[C@@H]1C(N)=O [Example 8, {[(2S,5R)-2-carbamoyl-3-methyl-7-oxo-1,6-diazabicyclo[3.2.1]oct-3-en-6-yl]oxy}(difluoro)acetic acid lithium salt] | 1.5 nM | 14 nM |
| CC1=C[C@@H]2CN(C(=O)N2O[C@@H](F)C(=O)O)[C@@H]1C(=O)NCO [Example 87, (2S)-2-fluoro-2-[[(2S,5R)-2-(hydroxymethylcarbamoyl)-3-methyl-7-oxo-1,6-diazabicyclo[3.2.1]oct-3-en-6-yl]oxy]acetic acid lithium salt] | 150 nM | 11 nM |
| CC1=C[C@@H]2CN(C(=O)N2O[C@@H](F)C(=O)O)[C@@H]1C(=O)NOC[C@@H]1CC(F)(F)CN1 [Example 63, (2S)-2-(((2S,5R)-2-((((S)-4,4-difluoropyrrolidin-2-yl)methoxy)carbamoyl)-3-methyl-7-oxo-1,6-diazabicyclo[3.2.1]oct-3-en-6-yl)oxy)-2-fluoroacetic acid TFA salt] | 110 nM | 230 nM |
| CC1=C[C@@H]2CN(C(=O)N2O[C@@H](F)C(=O)O)[C@@H]1C(=O)NCCNS(C)(=O)=O [Example 67, (2S)-2-fluoro-2-[[(2S,5R)-2-[2-(methanesulfonamido)ethylcarbamoyl]-3-methyl-7-oxo-1,6-diazabicyclo[3.2.1]oct-3-en-6-yl]oxy]acetic acid lithium salt] | 64 nM | 340 nM |
| CC(=O)NNC(=O)[C@@H]1C(C)=C[C@@H]2CN1C(=O)N2OC(F)C(=O)O (stereo partly drawn) [Example 27, 2-(((2S,5R)-2-(2-acetylhydrazinecarbonyl)-3-methyl-7-oxo-1,6-diazabicyclo[3.2.1]oct-3-en-6-yl)oxy)-2-fluoroacetic acid lithium salt] | 47 nM | 18 nM |
| CC1=C[C@@H]2CN(C(=O)N2OCC(=O)O)[C@@H]1C(N)=O [Example 10, {[(2S,5R)-2-carbamoyl-3-methyl-7-oxo-1,6-diazabicyclo[3.2.1]oct-3-en-6-yl]oxy}acetic acid lithium salt] | 430 nM | 51 nM |
| CC1=C[C@@H]2CN(C(=O)N2O[C@@H](F)C(=O)O)[C@@H]1C(=O)NCCCS(N)(=O)=O [Example 74, (2S)-2-fluoro-2-[[(2S,5R)-3-methyl-7-oxo-2-(3-sulfamoylpropylcarbamoyl)-1,6-diazabicyclo[3.2.1]oct-3-en-6-yl]oxy]acetic acid lithium salt] | 280 nM | 590 nM |
| CC1=C[C@@H]2CN(C(=O)N2O[C@@H](F)C(=O)O)[C@@H]1C(=O)NOCCS(N)(=O)=O [Example 56, (2S)-2-fluoro-2-[[(2S,5R)-3-methyl-7-oxo-2-(2-sulfamoylethoxycarbamoyl)-1,6-diazabicyclo[3.2.1]oct-3-en-6-yl]oxy]acetic acid lithium salt] | 93 nM | 220 nM |
| CC1=C[C@@H]2CN(C(=O)N2O[C@@H](F)C(=O)O)[C@@H]1C(=O)NCC[C@@H]1CCC(=O)N1 [Example 73, (2S)-2-fluoro-2-[[(2S,5R)-3-methyl-7-oxo-2-[2-(5-oxopyrrolidin-2-yl)ethylcarbamoyl]-1,6-diazabicyclo[3.2.1]oct-3-en-6-yl]oxy]acetic acid lithium salt] | 730 nM | 530 nM |
| NC(=O)[C@@H]1C(C2CC2)=C[C@@H]2CN1C(=O)N2OC(F)C(=O)O (stereo in doubt) [Example 42, (2R)-2-(((2S,5R)-2-carbamoyl-3-cyclopropyl-7-oxo-1,6-diazabicyclo[3.2.1]oct-3-en-6-yl)oxy)-2-fluoroacetic acid lithium salt] | 24 nM | 5.2 nM |
| CC1=C[C@@H]2CN(C(=O)N2O[C@@H](F)C(=O)O)[C@@H]1C(=O)NCCS(N)(=O)=O [Example 57, (2S)-2-fluoro-2-[[(2S,5R)-3-methyl-7-oxo-2-(2-sulfamoylethylcarbamoyl)-1,6-diazabicyclo[3.2.1]oct-3-en-6-yl]oxy]acetic acid lithium salt] | 57 nM | 410 nM |
| CC(=O)NC[C@@H]1C(C)=C[C@@H]2CN1C(=O)N2O[C@@H](F)C(=O)O [Example 78, (2S)-2-[[(2S,5R)-2-(acetamidomethyl)-3-methyl-7-oxo-1,6-diazabicyclo[3.2.1]oct-3-en-6-yl]oxy]-2-fluoro-acetic acid lithium salt] | 3600 nM | 690 nM |
| NC(=O)[C@@H]1C(C2CC2)=C[C@@H]2CN1C(=O)N2O[C@H](F)C(=O)O [Example 41, (2R)-2-(((2S,5R)-2-carbamoyl-3-cyclopropyl-7-oxo-1,6-diazabicyclo[3.2.1]oct-3-en-6-yl)oxy)-2-fluoroacetic acid lithium salt] | 3.5 nM | 6.4 nM |
| CC1=C[C@@H]2CN(C(=O)N2O[C@@H](F)C(=O)O)[C@@H]1C(=O)NCCC(N)=O [Example 71, (2S)-2-[[(2S,5R)-2-[(3-amino-3-oxo-propyl)carbamoyl]-3-methyl-7-oxo-1,6-diazabicyclo[3.2.1]oct-3-en-6-yl]oxy]-2-fluoro-acetic acid lithium salt] | 110 nM | 75 nM |
| CC1=C[C@@H]2CN(C(=O)N2O[C@@H](F)C(=O)O)[C@@H]1CNC(=O)OC(C)(C)C [Example 76, (2S)-2-[[(2S,5R)-2-[tert-butoxycarbonylamino)methyl]-3-methyl-7-oxo-1,6-diazabicyclo[3.2.1]oct-3-en-6-yl]oxy]-2-fluoro-acetic acid lithium salt] | 940 nM | 220 nM |
| CC1=C[C@@H]2CN(C(=O)N2O[C@@H](F)C(=O)O)[C@@H]1CNC(=O)C(F)(F)F [Example 79, (2S)-2-fluoro-2-[[(2S,5R)-3-methyl-7-oxo-2-[[(2,2,2-trifluoroacetyl)-aminolmethyl]-1,6-diazabicyclo[3.2.1]oct-3-en-6-yl]oxy]acetic acid lithium salt] | 4200 nM | 5700 nM |
| NC(=O)[C@@H]1CC[C@@H]2CN1C(=O)N2O[C@H](F)C(=O)O [Comparator 98, reference compound] | 1.3 nM | 2600 nM |
| CC1=C[C@@H]2CN(C(=O)N2O[C@@H](F)C(=O)O)[C@@H]1C(=O)NOC[C@@H]1CCC(=O)N1 [Example 72, (2S)-2-fluoro-2-[[(2S,5R)-3-methyl-7-oxo-2-[(5-oxopyrrolidin-2-yl)methoxycarbamoyl]-1,6-diazabicyclo[3.2.1]oct-3-en-6-yl]oxy]acetic acid lithium salt] | 77 nM | 110 nM |
